Source: patent US10857110B2, “Antibacterial compounds” (CONSEJO NACIONAL DE INVESTIGACIONES CIENTÍFICAS Y TÉCNICAS …, priority 2016, dated 2020)
≈ marks a conversion by molar mass, not a printed value. Read-outs that look alike come from different tables or passages of the source.

Experiments:
[1] = system: Bacillus cereus (ATCC10876); assay: MIC/MBC antibiotic sensitivity (CLSI); assay type: cell-based; conditions: for MBC: read-out: MBC; for MIC: read-out: MIC
Outline: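 Read-outs were MIC and MBC, both obtained by quantitative methods applied according to Clinical and Laboratory Standards Institute criteria. Test organisms included highly resistant Burkholderia isolates from cystic fibrosis patients' sputum alongside a Gram-positive reference strain.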

[2] = system: Burkholderia cenocepacia (CBC 032); assay: MIC/MBC antibiotic sensitivity (CLSI); assay type: cell-based; conditions: for MBC: read-out: MBC
Outline: (§1)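 Two quantitative methods following CLSI criteria gave minimum inhibitory concentration (MIC) and minimum bactericidal concentration (MBC). Burkholderia isolates came from sputum of cystic fibrosis patients and were chosen for high resistance to clinically used antimicrobials; S. aureus is a Gram-positive reference strain.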

[3] = system: Burkholderia multivorans (CBC 021); assay: MIC/MBC antibiotic sensitivity (CLSI); assay type: cell-based
Outline: as §1

B. cenacepacia (FQC2524) = assay: MIC/MBC antibiotic sensitivity (CLSI); assay type: cell-based, B. cenocepacia; conditions: Burkholderia cenocepacia
Method: (§2) The new compounds of the invention were synthesized following the general method of preparation (Tetrahedron, 2001, 57, 1671-1675), from the reaction between an intermediary compound of the acyl thiourea and HgCl2 in presence of trimethylamine. The products were adequately characterized regarding its chemistry. The antibacterial activity of the new compounds was assayed against two Gram-positive reference strains: Staphylococcus aureus (ATCC6538) and Bacillus cereus (ATCC10876), a fermenting Gram-negative strain: Escherichia coli (ATCC25922), and 26 non-fermenting Gram-negative isolates, including 3 reference strains: Pseudomonas aeruginosa (PAO1), Bordetella bronchiseptica (9.73H+), and Inquilinus limosus (DSM16000), and 23 isolates recovered from patients suffering from cystic fibrosis, including one Achromobacter xylosoxidans isolate, and 22 isolates belonging to the Burkholderia cepacia complex. The later were selected because they presented resistance to a high number of antimicrobial compounds, among a panel of 125 clinical isolates previously analyzed for its resistance against 17 antimicrobial compounds (1,2). The antibiotic sensitivity studies were performed by applying two quantitative methods which allow to determine the minimum inhibitory concentration (MIC) and the minimum bactericidal concentration (MBC).
(§3) The compounds obtained in Examples 1 and 2 were assayed against 23 isolates recovered from the sputum of patients suffering from cystic fibrosis being treated at the Sor Maria Ludovica Children Hospital (La Plata, Buenos Aires, Argentina). Nineteen of these isolates were selected for being highly resistant to most of the antimicrobial agents of clinical use from a panel of 125 isolates previously characterized in Martina et al. (1). Reference strains were also included: Gram (+) bacteria: B. cereus and S. aureus, fermenting Gram (−) bacteria: E. coli, and non-fermenting Gram (−) bacteria: Inquilinus limosus (DSM16000), B. bronchiseptica, and Pseudomonas aeruginosa (PAO1). The antibiotic sensitivity studies were performed applying two quantitative methods which allow to determine the minimum inhibitory concentration (MIC) and the minimum bactericidal concentration (MBC) according to the criteria established by the Clinical and Laboratory Standards Institute (CLSI) (4). For comparative purposes, three antibiotics commonly used in the treatment of pulmonary infections in cystic fibrosis patients were included in the study: tobramycin, ceftazidime and meropenem.

[4] = system: Achromobacter xylosaxidans (HNA001); assay: MIC/MBC antibiotic sensitivity (CLSI); assay type: cell-based, Achromobacter xylosoxidans
Method: as §2, §3

[5] = system: Burkholderia seminalis (CBC 040); conditions: reference (1); cited from earlier work
[6] = Cytotoxicity assay, Trypan blue vital staining; assay type: cell-based, human; conditions: human, THP-I monocyte cells; THP-I cells, Trypan Blue; highest drug concentration at which 50% of cells are viable compared with control
Method: (§4) For example, the MIC values for E. coli of the guanidine derivatives disclosed in patent application WO 2004073709 A1 are higher than 1 μg/ml. The guanidine derivatives disclosed by Hensler and colleagues (Hensler, M. E.; Bernstein, G.; Nizet, V.; Nefzi, A., Bioorganic & Medicinal Chemistry Letters 2006, 16, 5073-5079) have MIC values higher than 2.5 μg/ml against E. coli. […] In vitro cytotoxicity assays were performed using the human monocyte cell line THP-I and vital staining with Trypan Blue (3). The IC50 value was defined as the higher drug concentration at which 50% of cells are viable compared with the control. […] The Selectivity Index (SI), defined as the ratio between the IC50 and the MIC for each compound, was calculated. Compound H-BDF has an SI>10, which makes it a good antimicrobial candidate according to the criteria set up by Orme (5).
(§5) For assaying the cytotoxicity of the compounds obtained in Examples 1 and 2, cell viability by vital coloration exclusion with Trypan blue (3). The studies were performed using the monocyte cell line THP-I. The IC50 value was defined as the highest drug concentration at which 50% of the cells are viable as compared with the control.

[7] = system: human monocyte cell line THP-I; assay: Cytotoxicity assay, Trypan blue vital staining; assay type: cell-based; conditions: ratio IC50 / MIC, strain not stated
Method: as §4, §5

[8] = Burkholderia multivorans (CBC 021)
[9] = Achromobacter xylosaxidans (HNA001)
[10] = Burkholderia cenocepacia (CBC 032)
[11] = Burkholderia cenocepacia (CBC 032), read-out: MIC
[12] = Burkholderia multivorans (CBC 021), read-out: MIC
[13] = Achromobacter xylosaxidans (HNA001), read-out: MIC

SMILES	MBC [1]	MIC [1]	MBC [3, 8]	MBC [4, 9]	MBC [2, 10]	MIC [2, 11]	MIC [3, 12]	MBC (B. cenacepacia (FQC2524))	MIC (B. cenacepacia (FQC2524); read-out: MIC)	MIC [4, 13]	IC50 [6]	melting point	also measured
C[C@@H](O)[C@H]1C(=O)N2C(C(=O)O)=C(S[C@@H]3CN[C@H](C(=O)N(C)C)C3)[C@H](C)[C@H]12 [Meropenem, meropenem]	< 0.48 µg/mL	< 0.48 µg/mL	7.81 µg/mL (≈ 20.4 µM)	7.81 µg/mL (≈ 20.4 µM)	–	–	–	–	–	–	–	–	MIC ([2]; Burkholderia cenocepacia, Meropenem, CLSI criteria, B. cenocepacia (CBC 032), read-out: MIC (R/I/S category)): > 16 µg/mL; MIC ([3]; Burkholderia multivorans, Meropenem, CLSI criteria, B. multivorans (CBC 021), read-out: MIC (R/I/S category)): < 4 µg/mL; MIC (B. cenacepacia (FQC2524); Meropenem, CLSI criteria, read-out: MIC (R/I/S category)): < 4 µg/mL; MIC ([4]; Achromobacter, Meropenem, CLSI criteria, A. xylosaxidans (HNA001), read-out: MIC (R/I/S category)): < 4 µg/mL; resistance of the strain to commercial antibiotics [5]: resistant
NC[C@H]1O[C@H](O[C@H]2[C@H](O)[C@@H](O[C@H]3O[C@H](CO)[C@@H](O)[C@H](N)[C@H]3O)[C@H](N)C[C@@H]2N)[C@H](N)C[C@@H]1O [Tobramucin, tobramycin]	31.2 µg/mL (≈ 66.8 µM)	7.81 µg/mL (≈ 16.7 µM)	–	–	–	–	–	–	–	–	–	–	MIC ([2]; Burkholderia cenocepacia, Tobramucin, CLSI criteria, B. cenocepacia (CBC 032), read-out: MIC (R/I/S category)): > 16 µg/mL; MIC ([3]; Burkholderia multivorans, Tobramucin, CLSI criteria, B. multivorans (CBC 021), read-out: MIC (R/I/S category)): > 16 µg/mL; MIC (B. cenacepacia (FQC2524); Tobramucin, CLSI criteria, read-out: MIC (R/I/S category)): > 16 µg/mL; MIC ([4]; Achromobacter, Tobramucin, CLSI criteria, A. xylosaxidans (HNA001), read-out: MIC (R/I/S category)): > 16 µg/mL
O=C(NC(=Nc1c(Br)cc(F)cc1Br)Nc1c(F)cc(F)cc1Br)C12CC3CC(CC(C3)C1)C2 [H-DBF, N—(N-(2-bromo-4,6-difluorophenyl)-N′-(2,6-dibromo-4-fluorophenyl)carbamimidoyl) adamantane-1-carboxamide]	66.4 µg/mL (≈ 100 µM)	66.4 µg/mL (≈ 100 µM)	> 132 µg/mL	31.2 µg/mL (≈ 47.1 µM)	62.5 µg/mL (≈ 94.1 µM)	31.2 µg/mL (≈ 47.1 µM)	66.4 µg/mL (≈ 100 µM)	31.2 µg/mL (≈ 47.1 µM)	15.6 µg/mL (≈ 23.5 µM)	7.8 µg/mL (≈ 11.7 µM)	> 132 µg/mL	144 °C	–
O=C(NC(=Nc1c(F)cc(F)cc1Br)Nc1c(F)cc(F)cc1Br)C12CC3CC(CC(C3)C1)C2 [H-BDF, N—(N,N′-bis(2-bromo-4,6-difluorophenyl)carbamimidoyl)adamantane-1-carboxamide]	1.95 µg/mL (≈ 3.23 µM)	1.95 µg/mL (≈ 3.23 µM)	3.9 µg/mL (≈ 6.46 µM)	< 0.48 µg/mL	3.9 µg/mL (≈ 6.46 µM)	1.95 µg/mL (≈ 3.23 µM)	1.95 µg/mL (≈ 3.23 µM)	3.9 µg/mL (≈ 6.46 µM)	0.97 µg/mL (≈ 1.61 µM)	< 0.48 µg/mL	15.2 µg/mL (≈ 25.3 µM)	174 °C	Selectivity Index (SI) [7]: > 10
